According to article PMC7395048 (Archives of Toxicology, 2020):
Marks after values point to notes of the source that are not given here.

What was measured:
[1] = In vitro incubations with pooled human intestinal microsomes
[2] = in vivo, po; cited from earlier work
hiPSC-CM = hiPSC-CM MEA assay (FPDc, extracellular field potential)
Experimental: Briefly, each well of the MEA chips was precoated with 50 μg/ml fibronectin for 3 h in the incubator at 37 °C with 5% CO2. The fibronectin coating solution was aspirated before seeding. Cells were thawed in the incubator at 37 °C for exactly 4 min and carefully transferred to a 50-ml tube. The original vial was rinsed with serum free Pluricyte® Cardiomyocyte Medium and added drop-wise to the tube containing the cardiomyocytes. […] Then, the supernatant was removed and medium was drop-wisely added to reach the aimed concentration of cells in the suspension (10^4 cells/μl). 2-μl cell suspension per well was placed on the six-well MEA chips in a density of 10^4 cells/μl. After 3-h incubation (37 °C, 5% CO2), 200 μl of medium was filled into each well of the MEA chips which were subsequently incubated at 37 °C with 5% CO2 and refreshed with medium every 2 days.
At 7–8 days after seeding, MEA chips were placed on the headstage of a MEA2100-system (MCS GmbH) integrated with the chamber providing a stable atmosphere (37 °C, 5% CO2) to record the extracellular field potential (Fig. 2) of spontaneous beating hiPSC-CM. After an equilibration time of 20 min, half of the medium (100 μl) in each well was replaced by culture medium containing 0.2% (v/v) DMSO to reach a final concentration of 0.1% (v/v) DMSO, which was used as baseline condition. […] At each concentration, the extracellular field potential was recorded for 1 min after 10-min exposure. […] Same test concentrations were chosen for EDDP and EMDP, which enables definition of concentration-dependent curves for EDDP and EMDP that allow potency comparison.
One well of 0.1% (v/v) DMSO on each MEA chip was used as the vehicle control well and run at the same time as the compound exposure wells to correct for time- and DMSO-dependent effects on the field potential. A detailed exposure scheme can be found in Fig. S1. Data were collected using Cardio 2D software (MCS GmbH) with a sample frequency of 10 kHz and a 0.1–3.5-kHz band-pass filter.
Field potential duration (FPD) was defined as duration between the beginning of the sodium spike and the repolarizing peak (Fig. 2). RR-intervals were defined as the duration between two depolarization peaks (Fig. 2). The FPD and RR-interval were measured as the average of at least 30 beats from 1-min recording at each concentration of the test compound.
In this formula, the FPD and RR-interval are expressed in seconds. Data were collected from at least three independent experiments (4–8 wells, 26–38 electrodes), using a new vial of cells (all from the same batch) at each independent experiment. […] The concentrations inducing irregularities in the field potential trace (Fig. S2) were also noted.
The concentration–response curves were plotted with GraphPad Prism 5.0 using the four-parameters logistic fit (GraphPad Software Inc., San Diego, USA). Each data point is presented as the mean value of at least three independent experiments ± standard deviation (SD). Statistical significance of the changes in response of cells exposed to the compound compared to the solvent control was analyzed by one-way ANOVA followed by post Dunnett test. Values of p < 0.05 were regarded as statistically significant (p < 0.05: *, p < 0.01: ** and p < 0.001: ***). Statistical analysis was performed by GraphPad Prism 5.0 (GraphPad Software Inc.).

[3] = RED assay, unbound fraction in in vitro hiPSC-CM MEA assay medium; conditions: in vitro hiPSC-CM MEA assay medium (serum-free)
[4] = ref Eap et al. [1990]; Olsen [1973]; Romach et al. [1981]; Wilkins et al. [1997]; cited from earlier work
[5] = cited from earlier work

SMILES: CCC(=O)C(CC(C)N(C)C)(c1ccccc1)c1ccccc1 (centres unmarked) [methadone]
- formation of EDDP ([1]; 50 µM methadone, up to 120 min, up to 2 mg/ml protein): negligible formation of EDDP
- EMDP formation ([1]; methadone as substrate): no EMDP formation was detected
- Fraction absorbed (Fa) [2]: 0.88
- BMC20, prolongation of FPDc (hiPSC-CM; 20% change in FPDc over control, cumulative addition, 10-min exposure): 0.6 µM
- concentration at which cessation of beating was observed (hiPSC-CM; human, 10 min): 30 µM
- concentration from which arrhythmia-like waveforms were induced (hiPSC-CM; tested up to 30 µM): ≥ 3 µM
- cytotoxicity at the test concentrations (hiPSC-CM; up to 30 µM, data not shown): no cytotoxicity was observed
- fraction unbound at 5 h, 150 µM [3]: 0.79 ± 0.041
- fu,p, extreme value (low) [4]: 0.034
- pKa ([5]; ref Gerber et al. ([2001])): 9.20^b
- LogP ([5]; ref Ke et al. ([2014])): 3.93^a
